The target of the test is human PD-L1 / Human PD-1 (Homo sapiens (Human), UniProt Q9NZQ7). Put plainly: Enzyme-Linked Immunosorbent Assay (ELISA), PD-1/PD-L1 binding. Conditions: plate-coated human PD-L1, biotinylated human PD-1, absorbance at 450 nm. On the procedure:
96 Well plates were coated with 1 μg/mL of human PD-L1 (obtained from R&D) in PBS overnight at 4° C. The wells were then blocked with 2% BSA in PBS (W/V) with 0.05% TWEEN-20 for 1 hour at 37° C. The plates were washed 3 times with PBS/0.05% TWEEN-20 and the compounds were serial diluted (1:5) in dilution medium and added to the ELISA plates. Human PD-1 and biotin 0.3 μg/mL (ACRO Biosystems) were added and incubated for 1 hour at 37° C. then washed 3 times with PBS/0.05% TWEEN-20. A second block was performed with 2% BSA in PBS (W/V)/0.05% TWEEN-20 for 10 min at 37° C. and was washed 3 times with PBS/0.05% TWEEN-20. Streptavidin—HRP was added for 1 hour at 37° C. then washed 3 times with PBS/0.05% TWEEN-20. TMB substrate was added and reacted for 20 min at 37° C. A stop solution (2 N aqueous H2SO4) was added. The absorbance was read at 450 nm using a micro-plate spectrophotometer.
Compounds in Table 1 were prepared by methods as described in the Examples and evaluated according to the assay above.
On the technique in general: An ELISA detects its analyte on a solid surface through an enzyme-linked reagent.

Sequence of human PD-L1 / Human PD-1 (Q9NZQ7 19-239): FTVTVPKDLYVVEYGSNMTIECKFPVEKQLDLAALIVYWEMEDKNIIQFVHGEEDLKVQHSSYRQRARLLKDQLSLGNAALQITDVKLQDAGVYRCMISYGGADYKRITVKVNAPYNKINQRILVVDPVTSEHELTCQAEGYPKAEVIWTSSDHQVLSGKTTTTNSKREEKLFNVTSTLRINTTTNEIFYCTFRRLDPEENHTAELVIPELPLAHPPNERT

As a reminder, the IC50 is the concentration that gives 50% inhibition. `Cc1c(COc2cc3c(cc2Cl)CO[C@H](C(=O)O)CCNC(=O)c2cncc(c2)CN3)cccc1-c1ccccc1` [Compound 1.009] showed an IC50 of 0.5 to 20 µM.

Values taken from patent US11059834B2, “Macrocyclic immunomodulators” (CHEMOCENTRYX, INC., priority 2017, dated 2021).
